According to US6531584B1, “2'modified oligonucleotides” (ISIS Pharmaceuticals, Inc., priority 1990, dated 2003):
Several values for one entry are separate records, joined by “and”; a condition that tells them apart may be missing. Equal values may be shown once. Strand notation (5' to 3'): a small letter for the sugar, then the base; units joined by * are phosphorothioate-linked, units joined directly phosphodiester-linked; [ ] holds rarer units or linkages, { } end groups; capitals alone tell only the bases. d = 2'-deoxy (DNA); m = 2'-O-methyl; f = 2'-fluoro

Key:
[1] = test system: mutant (activated) H-ras RNA; assay type: cell-based, human
[2] = test system: ras mRNA; assay: Northern blot analysis of ras expression in T24 cells; assay type: cell-based, human; set-up: inhibition of ras expression / decrease of ras mRNA: concentration or dose not given beside the values; settings: T24 cells, Northern blot
Protocol: The human urinary bladder cancer cell line T24 was obtained from the American Type Culture Collection (Rockville Md.). Cells were grown in McCoy's 5A medium with L-glutamine (GIBCO-BRL, Gaithersburg, Md.), supplemented with 10% heat-inactivated fetal calf serum and 50 U/ml each of penicillin and streptomycin. Cells were seeded on 100 mm plates. When they reached 70% confluency, they were treated with oligonucleotide. Plates were washed with 10 ml prewarmed PBS and 5 ml of OptiMEM (GIBCO) reduced-serum medium containing 2.5 μl DOTMA. Oligonucleotide was then added to the desired concentration. After 4 hours of treatment, the medium was replaced with McCoy's medium. Cells were harvested 48 hours after oligonucleotide treatment and RNA was isolated using a standard CsCl purification method. [Kingston in Current Protocols in Molecular Biology, F. M. Ausubel, R. Brent, R. E. Kingston, D. D. Moore, J. A. Smith, J. G. Seidman and K. Strahl, Eds., John Wiley and Sons, New York.] The human epithelioid carcinoma cell line HeLa 229 was obtained from the American Type Culture Collection (Bethesda, Md.). HeLa cells were maintained as monolayers on 6-well plates in Dulbecco's Modified Eagle's medium (DMEM) supplemented with 10% fetal bovine serum and 100 U/ml penicillin. Treatment with oligonucleotide and isolation of RNA were essentially as described above for T24 cells.
Northern hybridization: 10 μg of each RNA was electrophoresed on a 1.2% agarose/formaldehyde gel and transferred overnight to GeneBind 45 nylon membrane (Pharmacia LKB, Piscataway, N.J.) using standard methods. [Kingston in Current Protocols in Molecular Biology, F. M. Ausubel, R. Brent, R. E. Kingston, D. D. Moore, J. A. Smith, J. G. Seidman and K. Strahl, Eds., John Wiley and Sons, New York.] RNA was UV-crosslinked to the membrane. Double-stranded ^32P-labeled probes were synthesized using the Prime a Gene labeling kit (Promega, Madison, Wis.). The ras probe was a SalI-NheI fragment of a cDNA clone of the activated (mutant) H-ras mRNA having a GGC-to-GTC mutation at codon-12. The control probe was G3PDH. Blots were prehybridized for 15 minutes at 68° C. with the QuickHyb hybridization solution (Stratagene, La Jolla, Calif.). The heat-denatured radioactive probe (2.5×10^6 counts/2 ml hybridization solution) mixed with 100 μl of 10 mg/ml salmon sperm DNA was added and the membrane was hybridized for 1 hour at 68° C. The blots were washed twice for 15 minutes at room temperature in 2×SSC/0.1% SDS and once for 30 minutes at 60° C. with 0.1×SSC/0.1%SDS. Blots were autoradiographed and the intensity of signal was quantitated using an ImageQuant PhosphorImager (Molecular Dynamics, Sunnyvale, Calif.). Northern blots were first hybridized with the ras probe, then stripped by boiling for 15 minutes in 0.1×SSC/0.1%SDS and rehybridized with the control G3PDH probe to check for correct sample loading.

[3] = test system: PKC-α mRNA; assay: Northern blot analysis of PKC-α mRNA levels; assay type: cell-based, human; settings: FIGS. 3 to 5
Protocol: Oligonucleotides having SEQ ID NO:4 were synthesized as uniformly phosphorothioate chimeric oligonucleotides having a centered deoxy gap of varying lengths flanked by 2′-O-methylated regions. These oligonucleotides (500 nM concentration) were tested for effects on PKC-α mRNA levels by Northern blot analysis.

[4] = test system: complementary RNA strand (the sense strand); assay: Thermal melting analysis of 2′-deoxy-2′-fluoro modified antisense oligonucleotides with complementary RNA; assay type: binding; settings: for Tm (° C.)/ subst.: change in Tm per 2′-fluoro substitution; for Tm (° C.): second Tm column: change in Tm versus unmodified oligonucleotide
[5] = first G°37 column: free energy of duplex with complementary RNA
[6] = second G°37 column: change versus unmodified oligonucleotide

CsCsAsCsAsCsCsGsAoCsGsGsCsGsCsCsC [Oligonucleotide 4248]
effect on ras expression [1]: just as active as a full P═S molecule

C^MC^MA^M C^MA^MC^M CdGdAd CdGdG^M C^MG^MC^M C^MC^M [Oligonucleotide 3980]
inhibition of ras expression / decrease of ras mRNA [2]: 61% | inhibition of ras-luciferase activity [1]: next greatest inhibition

AsAoAoAoCoGsTsCsAsGsCsCsAsTsGoGoToCoCsC (AAAACGTCAGCCATGGTCCC; linkages s1 o4 s9 o4 s1 (s phosphorothioate, o phosphodiester), sugars by position and methylation of C not given here; further chemistry not fully specified) [Oligonucleotide 7008]
reduction of PKC-α mRNA levels [3]: show reduction of PKC-α mRNA

TsCsTs CsGsCs TsGsGs TsGsAs GsTsTs TsC (TCTCGCTGGTGAGTTTC; all phosphorothioate, sugars by position and methylation of C not given here) [Oligonucleotide 7082]
reduction of PKC-α mRNA levels [3]: most active in reducing PKC-α mRNA levels

CGA CUAUGCAAG UAC (CGACUAUGCAAGUAC; chemistry not fully specified)
Tm (° C.)/ subst. [4]: +1.7 °C | G°37 [4, 5]: -16.18 ± 0.08 kcal/mol | G°37 [4, 6]: -6.07 ± 0.09 kcal/mol | Tm (° C.) [4]: +13.8 °C

Oligonucleotide 4689: SEQ ID NO:1, 2′-fluoro-modified nucleotides flanking a 5-deoxy gap (CCACACCGACGGCGCCC; sugars from the 5' end f6 d5 f6, all phosphorothioate, methylation of C not given here)
inhibition of ras expression / decrease of ras mRNA [2]: 63%

C^MC^MA^M C^MA^MCd CdGdAd CdGdGd C^MG^MC^M C^MC^M (antisense CCACACCGACGGCGCCC; sugars from the 5' end m5 d7 m5, backbone and methylation of C not given here) [Oligonucleotide 3985, 2′-O-methyl P═S chimera, 7-deoxy gap]
inhibition of ras expression / decrease of ras mRNA [2]: 95% and 81% | inhibition of ras-luciferase activity [1]: greatest inhibition

C^FC^FA^F C^FA^FCd CdGdAd CdGdGd C^FG^FC^F C^FC^F [Oligonucleotide 4690]
inhibition of ras expression / decrease of ras mRNA [2]: 82%

AoAoAoAoCoGsTsCsAsGsCsCsAsTsGoGoToCoCoC (AAAACGTCAGCCATGGTCCC; listed as DNA, chemistry not fully specified) [Oligonucleotide 7273]
reduction of PKC-α mRNA levels [3]: more active than their 2′-O-methyl counterparts

CTTATATTCCGTCATCGCTC [Oligonucleotide 2502]
inhibition of ras expression / decrease of ras mRNA ([2]; listed as 2502): 26%

AsAsAsAsCsGsTsCsAsGsCsCsAsTsGsGsTsCsCsC (AAAACGTCAGCCATGGTCCC; 2'-O-methyl/deoxy P=S chimera, chemistry not fully specified) [Oligonucleotide 5352]
reduction of PKC-α mRNA levels [3]: most active

C^MC^MA^M C^MA^MC^M C^MG^MAd C^MG^MG^M C^MG^MC^M C^MC^M [Oligonucleotide 3975]
inhibition of ras-luciferase activity [1]: neither of the oligonucleotides having either the one or the three 2′-deoxy-erythro-pentofuranosyl nucleotide subsequences showed significant activity

CsCsAsCoAoCoCoGoAoCoGoGoCoGsCsCsC [Oligonucleotide 4241]
effect on ras expression [1]: completely inactive

C^MC^MA^M C^MA^MC^M C^MGdAd CdG^MG^M C^MG^MC^M C^MC^M [Oligonucleotide 3979]
inhibition of ras-luciferase activity [1]: neither of the oligonucleotides having either the one or the three 2′-deoxy-erythro-pentofuranosyl nucleotide subsequences showed significant activity

TsTsCs TsCsGs CsTsGs GsTsGs AsGsTs TsTsC (TTCTCGCTGGTGAGTTTC; all phosphorothioate, sugars by position and methylation of C not given here) [Oligonucleotide 6632]
reduction of PKC-α mRNA levels [3]: most active in reducing PKC-α mRNA levels

C^MC^MA^M C^MAdCd CdGdAd CdGdGd CdG^MC^M C^MC^M [Oligonucleotide 3984]
inhibition of ras expression / decrease of ras mRNA [2]: 81%

oligonucleotide with the 2′-O-propyl diester flanking regions: SEQ ID NO:1, phosphorothioate in the 7-base deoxy gap only, phosphodiester 2′-O-propyl flanking regions (DNA CCACACCGACGGCGCCC; sugars by position and backbone not given here; 2'-O-propyl phosphodiester flanks, 7-base phosphorothioate deoxy gap)
effect on ras expression [1]: able to inhibit ras expression

TCCGTCATCGCTCCTCAGGG [Oligonucleotide 5122]
inhibition of ras expression / decrease of ras mRNA ([2]; listed as 5122): 15%

CGACUAUGCAAG UAC (CGACUAUGCAAGUAC; chemistry not fully specified)
Tm (° C.)/ subst. [4]: +1.8 °C | G°37 [4, 5]: -19.85 ± 0.05 kcal/mol | G°37 [4, 6]: -9.74 ± 0.06 kcal/mol | Tm (° C.) [4]: +20.1 °C

AsAoAoAoCoGsTsCsAsGsCsCsAsTsGoGoToCoCsC (AAAACGTCAGCCATGGTCCC; listed as DNA, chemistry not fully specified) [Oligonucleotide 7294]
reduction of PKC-α mRNA levels [3]: more active than their 2′-O-methyl counterparts

AsAsAsAsCsGsTsCsAsGsCsCsAsTsGsGsTsCsCsC (dA*dA*dA*dA*dC*dG*dT*dC*dA*dG*dC*dC*dA*dT*dG*dG*dT*dC*dC*dC) [Oligonucleotide 3522]
reduction of PKC-α mRNA levels [3]: show reduction of PKC-α mRNA

CTTATATTCCGTCATCGCTC [Oligonucleotide 4998]
inhibition of ras expression / decrease of ras mRNA ([2]; listed as 4998): 84%
